Test [1] deals with T1, CB2 receptor (Homo sapiens, UniProt P34972).
T1 construct: expressed in transfected cells; host or cells: CHO-K1
Nature of the test: forskolin-stimulated cAMP assay in CB2 receptor transfected CHO-K1 cells. The test is classed as cell-based. As to conditions: for effect on CB2 agonist WIN55,212-2 response (cAMP): 1 μM antagonist, with increasing WIN55,212-2, 30 min prior to forskolin (20 μM), FIG. 2; for functional mode of ligand alone (cAMP): ligand alone at increasing concentrations 30 min prior to forskolin (20 μM), FIG. 3. How it is done:
FIG. 2. Confluentially growing CB2 receptor transfected […] CHO-K1 cells were stimulated with forskolin (20 μM) and analyzed for cAMP expression after 30 min. The CB2 agonist WIN55, 212-2 was incubated at increasing concentrations 30 min prior to forskolin stimulation alone or in presence of 1 μM of the antagonists AM630 and the compound of Formula II.
FIG. 3. Confluentially growing CB2 receptor transfected […] CHO-K1 cells were stimulated with forskolin (20 μM) and analyzed for cAMP expression after 30 minutes. CB2 ligands were incubated at increasing concentrations 30 minutes prior to forskolin stimulation.
Cell-based Functional Bioassay Studies. […] Subsequently, further receptor biological studies were performed: i) to examine/assess the G-protein effects of the compound of Formula II upon CB2 receptor binding and ii) to test the compound of Formula II for anti-inflammatory effects.

Test [2] has as its target T2, CB1 cannabinoid receptor (Rattus norvegicus, UniProt P20272).
T2 construct: from tissue; host or cells: rat forebrain membranes
Nature of the test: [3H]-CP-55,940 radiometric competition binding assay, CB1 (rat forebrain membrane). As to conditions: displacement of 3H-CP 55940, rat forebrain membrane; read-out: CB1 binding affinity (Ki). As to the method: (§1) In-vitro Bio-validation Experiment. To biologically validate the screened hit compounds above, in-vitro [^3H]-radioactive CB ligand binding assays were carried out to determine the CB receptor binding affinity (Ki) of the screened ligands by displacing [^3H]-CP-55,940. The compound of Formula II was obtained from National Cancer Institute (NCI). For each assay, a positive control with a known ligand (SR-141716A for CB1 and SR-144528 for CB2) was run to ensure the reliability of the assay.
For CB1 receptor binding studies, rat forebrain membranes were prepared following the reported procedures. […]
(§2) The experiments were conducted based on reported procedures. […] 1999, 1(3):article 4; Abadji et al., J. Med. Chem. 1994, 37(120:1889-1893; and Abadji et al., J. Neurochem. 1999, 72(5):2032-38. Thus, the competition binding assay was performed using [3H]-CP-55,940 (1 nM) as a radioligand for the CB1 or CB2 cannabinoid receptor (rate brain or mouse spleen membranes), at 30° C. in 96-well microtiter plates, 50 μg of membrane each well re-suspended in 200 μl (final volume) binding buffer (50 mM Tris-HCl, 2.5 mM EGTA, 3 mM MgCl2, 0.1% bovine serum albumin, pH 7.4). The tested compounds were presented at varying concentrations, and the nonspecific binding was determined in the presence of 10 μM CP-55,940 or HU-210. […] The Ki values were calculated by using GraphPad Prism 5.0 (GraphPad Software, Inc.).

In test [3] the target is T3, CB2 cannabinoid receptor (Mus musculus, UniProt P47936).
T3 construct: from tissue; host or cells: frozen mouse spleen membranes
Briefly: [3H]-CP-55,940 radiometric competition binding assay, CB2 (mouse spleen membrane). As to conditions: displacement of 3H-CP 55940, mouse spleen membrane; read-out: CB2 binding affinity (Ki). How it is done: as §1
For CB2 receptor binding studies, membranes were prepared from frozen mouse spleen. […]
as §2

“Also recorded” adds a separate entry of the source. Some results are limits rather than exact numbers.

T1 sequence (P34972 whole entry): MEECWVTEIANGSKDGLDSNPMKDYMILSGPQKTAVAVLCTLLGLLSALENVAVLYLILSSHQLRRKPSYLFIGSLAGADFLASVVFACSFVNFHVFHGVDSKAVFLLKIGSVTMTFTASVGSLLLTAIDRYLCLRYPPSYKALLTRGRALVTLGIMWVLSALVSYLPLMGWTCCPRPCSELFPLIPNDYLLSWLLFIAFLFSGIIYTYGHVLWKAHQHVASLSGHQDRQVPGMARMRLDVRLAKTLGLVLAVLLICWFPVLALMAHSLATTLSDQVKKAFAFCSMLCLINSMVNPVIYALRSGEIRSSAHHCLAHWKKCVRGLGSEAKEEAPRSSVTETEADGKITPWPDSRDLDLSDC
T2 sequence (P20272 whole entry): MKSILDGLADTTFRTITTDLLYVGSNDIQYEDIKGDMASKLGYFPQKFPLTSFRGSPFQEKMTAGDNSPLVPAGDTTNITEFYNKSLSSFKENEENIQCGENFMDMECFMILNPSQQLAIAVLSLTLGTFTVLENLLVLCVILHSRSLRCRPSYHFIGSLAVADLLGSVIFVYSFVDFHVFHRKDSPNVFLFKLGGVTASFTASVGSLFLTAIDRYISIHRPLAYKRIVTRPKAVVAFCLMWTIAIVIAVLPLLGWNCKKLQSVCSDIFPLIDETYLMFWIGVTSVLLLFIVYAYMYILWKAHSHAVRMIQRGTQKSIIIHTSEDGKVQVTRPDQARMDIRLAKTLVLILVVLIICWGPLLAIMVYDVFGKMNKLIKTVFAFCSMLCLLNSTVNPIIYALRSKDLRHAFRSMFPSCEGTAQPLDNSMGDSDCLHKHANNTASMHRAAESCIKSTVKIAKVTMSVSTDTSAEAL
T3 sequence (P47936 whole entry): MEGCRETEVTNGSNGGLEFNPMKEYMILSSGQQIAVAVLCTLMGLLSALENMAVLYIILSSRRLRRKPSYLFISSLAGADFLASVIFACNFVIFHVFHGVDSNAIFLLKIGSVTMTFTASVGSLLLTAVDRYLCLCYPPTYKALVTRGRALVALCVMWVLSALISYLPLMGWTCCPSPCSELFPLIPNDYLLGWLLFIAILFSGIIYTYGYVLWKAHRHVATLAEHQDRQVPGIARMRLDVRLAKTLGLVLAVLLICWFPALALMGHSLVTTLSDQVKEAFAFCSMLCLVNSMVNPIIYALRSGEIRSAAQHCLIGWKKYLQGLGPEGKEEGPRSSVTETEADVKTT

For `COc1ccc(C(=O)c2c(C)n(CCN3CCOCC3)c3cc(I)ccc23)cc1` [AM630, reference compound], in test [1], the “effect on CB2 agonist WIN55,212-2 response (cAMP)” value is listed as “inhibits the effect of WIN55,212-2” and the “functional mode of ligand alone (cAMP)” value is listed as “inverse agonist”.
In the case of `N/C(=N\Cc1ccccc1)C(/N=N/c1ccccc1)C(=O)NCc1ccccc1` (centres unmarked) [Formula II], in test [1], the “effect on Go signaling” value is recorded as “does not affect Go signaling”, the “effect on CB2 agonist WIN55,212-2 response (cAMP)” value is “inhibits the effect of WIN55,212-2; also recorded: antagonist like the known CB2 antagonist AM630 (but weaker)” and the “functional mode of ligand alone (cAMP)” value was “weak agonist at high concentration; also recorded: not an inverse agonist”. Also, the “concentration at which compound becomes an agonist (cAMP)” value in test [1] (FIG. 3, running text) is about 10 µM. Moreover, in test [1] (FIG. 3 legend), the “concentration at which compound is a weak agonist (cAMP)” value is over 7 mM. Besides, in test [1] (at concentrations up to low μM), the “impact on Gi-proteins” value is “does not have an impact on Gi-proteins”. Moreover, in test [2], the Ki worked out at 4180 nM. In test [3], the inhibitory constant (Ki) was 31.7 nM.
Take SR144528 [reference compound]: in test [1], the “functional mode of ligand alone (cAMP)” value is on record as “inverse agonist”.

The values are drawn from patent US8466131B2, “Ligands specific for cannabinoid receptor subtype 2” (University of Pittsburgh—of the Commonwealth System of …, priority 2007, dated 2013).
